Values after ≈ are worked out from the molar mass of the structure shown. Square brackets hold non-standard residues; d marks the D form. Peptide text beside a SMILES is read from it. Dap = NC[C@H](N)C(=O)O
Key:
[1] = test system: Cronobacter sakazakii (ATCC 29544); conditions: ATCC 29544
Excerpt: (§1) With respect to the determination of antibacterial activity and antifungal activity of the antibacterial polypeptide compounds, the bacterial strains employed included: E. coli (ATCC 25922), E. coli (ATCC 43837), Pseudomonas aeruginosa (ATCC 27853), Klebsiella pneumoniae (ATCC 700603), Cronobacter sakazakii (ATCC 29544), Staphylococcus aureus (ATCC 29213), Bacillus subtilis (ATCC 23857) and Staphylococcus epidermidis (ATCC 12228); and the fungal strains employed included Candida albicans (ATCC 14053), Candida glabrata (ATCC 2001), Candida parapsilosis (ATCC 22019), Candida tropicalis (ATCC 750) and Candida krusei (ATCC 6258), all of which were standard strains from American Type Culture Collection. In addition, drug-resistant strains S-1a, S-2a, S-3a, S-4a, E-1b, E-2b, E-3b, E-4b, E-5b, P-1c, P-2c, P-3c, P-4c, P-5c, and clinically isolated fungal strains Candida glabrata 2-1 and Candida albicans 14-1, 14-2 and 14-3 were employed, all which were clinically isolated.
(§2) Simply, a proper amount of the cryopreserved bacterium or fungus was added to fresh MH/SD medium, and cultured on a shaker overnight at 180 rpm at 37° C. The obtained cells were seeded again and cultured on a shaker for 4-5 hours to obtain cells in logarithmic phase. The resulting cells were added to a 96-well plate (1×10^5 CFU/ml, 100 μL/well), and then 100 μL of polypeptide with different concentrations (1-256 μM) twice the final concentrations was added to corresponding well according to the 2-fold serial dilution method. The fresh medium was used as a negative control, which was prepared in triplicate for each concentration. After dosing, the 96-well plate was placed in an incubator at constant 37° C. and humidity for 12 hours to observe the results. According to naked eye observations, the concentration of the compound in the first transparent well following the turbid wells was recorded as the MIC of the compound, namely, the MIC value of the compound to the bacterium or fungus.

[2] = test system: Bacillus subtilis (ATCC 23857); conditions: ATCC 23857
Excerpt: as §1, §2

[3] = test system: Staphylococcus aureus (ATCC 29213); conditions: ATCC 29213
Excerpt: as §1, §2

C. parapsilosis ATCC2001 = conditions: ATCC2001
Excerpt: as §1, §2

C. krusei ATCC6258 = conditions: ATCC6258
Excerpt: as §1, §2

C. tropicalis ATCC750 = conditions: ATCC750
Excerpt: as §1, §2

E. coli (ATCC 25922) = conditions: ATCC 25922
Excerpt: as §1, §2

[4] = test system: Staphylococcus epidermidis (ATCC 12228); conditions: ATCC 12228
Excerpt: as §1, §2

C. glabrata ATCC22019 = conditions: ATCC22019
Excerpt: as §1, §2

C. albicans ATCC14053 = conditions: ATCC14053
Excerpt: as §1, §2

[5] = test system: Pseudomonas aeruginosa (ATCC 27853); conditions: standard strain
Excerpt: as §1, §2

[6] = test system: E-3b, clinical isolated drug-resistant strain ESBL; conditions: strain E-3b (ESBL)
Excerpt: as §1, §2

[7] = test system: P-5c, clinical isolated drug-resistant strain PA; conditions: strain P-5c (PA)
Excerpt: as §1, §2

[8] = test system: P-2c, clinical isolated drug-resistant strain PA; conditions: strain P-2c (PA)
Excerpt: as §1, §2

[9] = test system: E-4b, clinical isolated drug-resistant strain ESBL; conditions: strain E-4b (ESBL)
Excerpt: as §1, §2

[10] = test system: E-1b, clinical isolated drug-resistant strain ESBL; conditions: strain E-1b (ESBL)
Excerpt: as §1, §2

[11] = test system: E-2b, clinical isolated drug-resistant strain ESBL; conditions: strain E-2b (ESBL)
Excerpt: as §1, §2

[12] = test system: P-1c, clinical isolated drug-resistant strain PA; conditions: strain P-1c (PA)
Excerpt: as §1, §2

[13] = test system: E-5b, clinical isolated drug-resistant strain ESBL; conditions: strain E-5b (ESBL)
Excerpt: as §1, §2

[14] = test system: P-3c, clinical isolated drug-resistant strain PA; conditions: strain P-3c (PA)
Excerpt: as §1, §2

[15] = test system: P-4c, clinical isolated drug-resistant strain PA; conditions: strain P-4c (PA)
Excerpt: as §1, §2

Compound | MIC C. sakazakii ATCC29544 [1] | MIC B. subtilis ATCC23857 [2] | MIC S. aureus ATCC29213 [3] | MIC C. parapsilosis ATCC2001 (C. parapsilosis ATCC2001) | MIC C. krusei ATCC6258 (C. krusei ATCC6258) | MIC C. tropicalis ATCC750 (C. tropicalis ATCC750) | MIC C. coli ATCC25922 (E. coli (ATCC 25922)) | MIC S. epidermidis ATCC12228 [4] | MIC C. glabrata ATCC22019 (C. glabrata ATCC22019) | MIC C. albicans ATCC14053 (C. albicans ATCC14053) | MIC P. aerugmosa ATCC27853 [5] | further results
CC(C)C[C@H](NC(=O)[C@H](CCCCN)NC(=O)[C@H](CC(C)C)NC(=O)[C@H](CCCCN)NC(=O)[C@H](CC(C)C)NC(=O)[C@H](CCN)NC(=O)[C@H](Cc1ccccc1)NC(=O)[C@@H]1CCCN1)C(N)=O [Compound 3, Pro-Phe-Dab-Leu-Lys-Leu-Lys-Leu-NH2] (HELM PEPTIDE1{P.F.[Dab].L.K.L.K.L.[am]}$$$$V2.0) | 32 µM (≈ 30.6 µg/mL) | 16 µM (≈ 15.3 µg/mL) | 128 µM (≈ 123 µg/mL) | 16 µM (≈ 15.3 µg/mL) | 64 µM (≈ 61.3 µg/mL) | 32 µM (≈ 30.6 µg/mL) | 32 µM (≈ 30.6 µg/mL) | 16 µM (≈ 15.3 µg/mL) | 32 µM (≈ 30.6 µg/mL) | 32 µM (≈ 30.6 µg/mL) | 32 µM (≈ 30.6 µg/mL) | 
CC(C)C[C@H](NC(=O)[C@H](CCN)NC(=O)[C@H](CC(C)C)NC(=O)[C@H](CO)NC(=O)[C@H](CC(C)C)NC(=O)[C@H](CCN)NC(=O)[C@H](Cc1c[nH]c2ccccc12)NC(=O)[C@@H]1CCCN1)C(N)=O [Compound 10, Pro-Trp-Dab-Leu-Ser-Leu-Dab-Leu-NH2] (HELM PEPTIDE1{P.W.[Dab].L.S.L.[Dab].L.[am]}$$$$V2.0) | 8 µM (≈ 7.42 µg/mL) | 16 µM (≈ 14.8 µg/mL) | 32 µM (≈ 29.7 µg/mL) | 16 µM (≈ 14.8 µg/mL) | 32 µM (≈ 29.7 µg/mL) | 8 µM (≈ 7.42 µg/mL) | 16 µM (≈ 14.8 µg/mL) | 16 µM (≈ 14.8 µg/mL) | 16 µM (≈ 14.8 µg/mL) | 32 µM (≈ 29.7 µg/mL) | 32 µM (≈ 29.7 µg/mL) | 
CC(C)C[C@H](NC(=O)[C@H](CN)NC(=O)[C@H](CC(C)C)NC(=O)[C@H](CN)NC(=O)[C@H](CC(C)C)NC(=O)[C@H](CN)NC(=O)[C@H](Cc1c[nH]c2ccccc12)NC(=O)[C@@H]1CCCN1)C(N)=O [Compound 11, Pro-Trp-Dap-Leu-Dap-Leu-Dap-Leu-NH2] (H-PW[Dap]L[Dap]L[Dap]L-NH2) | 16 µM (≈ 14.4 µg/mL) | 16 µM (≈ 14.4 µg/mL) | 32 µM (≈ 28.7 µg/mL) | 16 µM (≈ 14.4 µg/mL) | 32 µM (≈ 28.7 µg/mL) | 16 µM (≈ 14.4 µg/mL) | 16 µM (≈ 14.4 µg/mL) | 16 µM (≈ 14.4 µg/mL) | 16 µM (≈ 14.4 µg/mL) | 64 µM (≈ 57.5 µg/mL) | 64 µM (≈ 57.5 µg/mL) | 
H-PFKLKLHL-NH2 [Compound 1] | 32 µM | 32 µM | 128 µM | 32 µM | 64 µM | 32 µM | 32 µM | 32 µM | 32 µM | 32 µM | 32 µM | 
H-PFRLRLHL-NH2 [Compound 5] | 32 µM | 16 µM | 128 µM | 16 µM | 64 µM | 32 µM | 16 µM | 32 µM | 16 µM | 16 µM | 32 µM | 
H-PFRLRLRL-NH2 [Compound 7] | 32 µM | 8 µM | 64 µM | 8 µM | 32 µM | 32 µM | 8 µM | 16 µM | 8 µM | 8 µM | 8 µM | 
H-PFRLSLHL-NH2 [Compound 4] | 32 µM | 16 µM | 128 µM | 16 µM | 32 µM | 32 µM | 32 µM | 32 µM | 32 µM | 32 µM | 32 µM | 
H-PFRLSLRL-NH2 [Compound 6] | 16 µM | 16 µM | 64 µM | 16 µM | 32 µM | 16 µM | 8 µM | 16 µM | 8 µM | 32 µM | 32 µM | 
H-PWRLSLHL-NH2 [Compound 12] | 16 µM | 16 µM | 32 µM | 16 µM | 32 µM | 16 µM | 16 µM | 8 µM | 16 µM | 32 µM | 32 µM | 
H-PWRLSLRL-NH2 [Compound 14] | 8 µM | 8 µM | 32 µM | 8 µM | 32 µM | 8 µM | 8 µM | 16 µM | 8 µM | 8 µM | 8 µM | 
gentamicin [reference compound] |  |  |  |  |  |  |  |  |  |  |  | MIC [6]: 50 µM; MIC [7]: 50 µM; MIC [8]: 50 µM; MIC [9]: 50 µM; MIC [10]: 50 µM; MIC [11]: 50 µM; MIC [12]: 50 µM; MIC [13]: 50 µM; MIC [14]: 25 µM; MIC [15]: 50 µM

— patent publication US20250345492A1, “AN ANTIBACTERIAL POLYPEPTIDE COMPOUND, A MEDICAL DEVICE, HYDROGEL AND USE THEREOF” (priority 2020, published 2025)
